Values of other authors in patent publication US20210275440A1, “MICROBEAD COMPOSITIONS AND METHODS FOR DELIVERING AN AGENT” (THE UNIVERSITY OF MEMPHIS RESEARCH FOUNDATION, priority 2016, published 2021).

Settings: intra-articular administration

## CN[C@H](CC(C)C)C(=O)N[C@H]1C(=O)N[C@@H](CC(N)=O)C(=O)N[C@H]2C(=O)N[C@H]3C(=O)N[C@H](C(=O)N[C@H](C(=O)O)c4cc(O)cc(O)c4-c4cc3ccc4O)[C@H](O)c3ccc(c(Cl)c3)Oc3cc2cc(c3O[C@@H]2O[C@H](CO)[C@@H](O)[C@H](O)[C@H]2O[C@H]2C[C@](C)(N)[C@H](O)[C@H](C)O2)Oc2ccc(cc2Cl)[C@H]1O (atropisomer, axis not shown) [vancomycin]
  half-life: 3 h
  time therapeutic levels in joint and serum were maintained: 24 h
